According to PubChem BioAssay (NCI):
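48-hour exposure; five concentrations; linearly interpolated endpoints. GI50 = concentration required for 50% inhibition of growth. TGI is the concentration that stops growth completely.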

Legend:
Assay in all cases: NCI tumour cell line growth inhibition, 48 h
[1] = test system: A498 renal
[2] = test system: A549 NSCLC
[3] = test system: ACHN renal
[4] = test system: DU-145 prostate
[5] = test system: EKVX NSCLC
[6] = test system: HL-60(TB) leukemia
[7] = test system: HOP-92 NSCLC
[8] = test system: HS 578T breast
[9] = test system: HT29 colon
[10] = test system: K-562 leukemia
[11] = test system: MDA-MB-435
[12] = test system: NCI/ADR-RES ovarian
[13] = test system: PC-3 prostate
[14] = test system: RPMI-8226 leukemia
[15] = test system: SK-MEL-2 melanoma
[16] = test system: SK-MEL-28 melanoma
[17] = test system: SW-620 colon

CN(C)CCOc1ccc(/C(=C(/CCCCCCCCCC[P+](c2ccccc2)(c2ccccc2)c2ccccc2)c2ccccc2)c2ccccc2)cc1
GI50 [1]: 224 nM
TGI [1]: 774 nM
GI50 [2]: 77.2 nM
TGI [2]: 1660 nM
GI50 [3]: 382 nM
TGI [3]: 1470 nM
GI50 [4]: 258 nM
TGI [4]: 1350 nM
GI50 [5]: 274 nM
TGI [5]: 1400 nM
GI50 [6]: 57.5 nM
TGI [6]: 319 nM
GI50 [7]: 29.7 nM
TGI [7]: 208 nM
GI50 [8]: 318 nM
TGI [8]: 1790 nM
GI50 [9]: 127 nM
TGI [9]: 1400 nM
GI50 [10]: 38.9 nM
TGI [10]: > 100000 nM
GI50 [11]: 223 nM
TGI [11]: 899 nM
GI50 [12]: 1320 nM
TGI [12]: 3780 nM
GI50 [13]: 30.4 nM
TGI [13]: 184 nM
GI50 [14]: 27.3 nM
TGI [14]: 172 nM
GI50 [15]: 280 nM
TGI [15]: 864 nM
GI50 [16]: 364 nM
TGI [16]: 1790 nM
GI50 [17]: 280 nM
TGI [17]: 1320 nM
